Assays:
[1] = system: immobilized TSP-1 (thrombospondin from human platelets); experiment: ELISA binding of biotin-labeled peptides to immobilized TSP-1; settings: biotin-labeled peptide 10 μg/mL, 3 h, room temperature, 0.5% BSA; absorbance 450 nm; n = 3 in triplicate
Protocol: Microtiter plates (Nunc, ThermoFisher Scientific, Courtaboeuf, France) were coated overnight at 4°C with 0.5 μg TSP-1 in sodium carbonate-bicarbonate (BupH) buffer (Thermo Fisher Scientific). Plates were washed with PBS 0.1% BSA (Sigma-Aldrich) and non-specific sites were saturated during 30 min using 1% (w/v) BSA in BupH buffer. Biotin-labeled peptide (10 μg/mL, determined after dose-response assay from 0.01 to 100 μg/mL) was added in buffer containing 0.5% (w/v) BSA and incubated for 3 h at room temperature. Non-labeled peptide (0.001 to 5 mg/mL) was used as selective competitor. Plates were washed with PBS containing 0.1% (w/v) BSA and treated for 30 min with mouse anti-biotin antibody. Bound antibody was quantified using the mouse IgG Elite Vectastain ABC kit (Vector Laboratories) followed by incubation with 1-Step Turbo TMB substrate as a chromogen (ThermoFisher Scientific). The reaction was stopped with 0.5 M H2SO4 and absorbance was read at 450 nm.

[2] = system: CD47; settings: ref [43]; cited from earlier work
From the text: In addition to the putative effects that may be due to CD47 association with its co-receptors, TAX2-bound TSP-1 also remains able to bind a wide variety of ligands through the other domains of the multi-modular protein. Among these domains, a central region of TSP-1 called 3TSR (three TSP-1 type 1 repeats) binds to the CD36 membrane receptor, also leading to inhibition of angiogenesis. Indeed, CD36 ligation by TSP-1 is known to induce an anti-angiogenic response by promoting CD36 association with β1 integrin and VEGFR2 dimer in a tripartite complex, resulting in decreased VEGFR2 phosphorylatio ... || Figure 7 TAX2 induces a shift in TSP-1 binding from CD47 to CD36 A. In physiological conditions, most of TSP-1-related effects on vascular function are mediated by TSP-1 carboxy terminal domain interaction with CD47 receptor. B. Under TAX2 treatment preventing TSP-1:CD47 interaction, binding of the 3TSR module of TSP-1 to CD36 receptor is promoted, thus leading to an overall anti-angiogenic response (NTD, N-terminal domain; Col, procollagen-homology domain; CBD, carboxy terminal cell binding domain). TEXT PRINTED IN THE PICTURE: (A) TSP-1: CD36: 1-10 nM; CD47: 10-100 pM DOUBTS OF THE COPYIST A ...

Substance | binding to immobilized TSP-1 [1] | binding affinity for CD47 compared to CD36 [2]
LSVDESKAQGIL [scrambled peptide, scrambled dodecapeptide used as a control (…), reference compound] | does not | –
TSP-1: multimodular protein secreted as a disulfide-linked 450 kDa homotrimer | – | higher compared to CD36 binding
